Experiment: HPLC lactone stability in presence of DMPC SUV
Format: physicochemical
Conditions: for less lactone compared to the prior art monoamine (7AEC): DMPC
Protocol: To further study the differential interactions of CT-17 versus 7AEC with liposomal particles, high performance liquid chromatographic (HPLC) methods were employed to study drug stabilities in the absence and presence of membranes. In these experiments, small unilamellar vesicles (SUV) composed of dimyristoyl phosphatidylcholine (DMPC) were prepared by weighing out dry lipid powder (Avanti Polar Lipids) in a glass tube with screw cap top. The lipid was suspended in phosphate buffered saline, pH 7.4, at the concentration of 20 mg/ml and vortexed vigorously for 1 minute. The suspension was sonicated in a bath-type sonicator (Laboratory Supplies Co., Hicksville, N.Y.) for 2-4 hours until optically clear solution is obtained. […] A decrease in pH from 7.4 to 7.2 was observed. The pH of the SUV preparation was adjusted to 7.4 by the addition of 0.1 M potassium hydroxide. The sample was resonicated after pH adjustment until optically clear. Small unilamellar vesicles composed of dimyristoyl phosphatidylglycerol (DMPG) were also prepared by weighing out dry powder of the lipid (Avanti Polar Lipids) in a glass tube with screw-cap top and prepared as in the case of DMPC. The pH of the preparation decreased from 7.4 to 6.9 and was adjusted to 7.4 by the addition of 0.1 M KOH. The preparation was resonicated for 30 minutes until optically clear.
Stock solutions of 7-(1-Aminoethyl)camptothecin, a monoamine compound known in the prior art, and CT-17 as prepared in Example 18 were prepared by weighing out dry powder and dissolving in dimethylsulfoxide (DMSO) at a concentration of 2 mM. The SUV preparations from above were incubated at 37° C. in a water bath for 30 minutes. The two camptothecin drugs were added to the SUV preparations such that the final drug concentrations were 1 μM. The samples were incubated at 37° C. and aliquots were withdrawn at 1 hour and 3 hours and added to cold methanol (-20° C.) and immediately analyzed by reversed-phase HPLC using the conditions as follows. Analysis was performed using either Waters Alliance 2690 LC system equipped with temperature controlled autosampler or Waters LC system equipped with temperature controlled 717 plus Autosampler and 501 pumps. The detection was using either Waters 470 or 474 fluorescence detectors. Solvent A was 2% triethylammonium acetate, pH 5.5 and Solvent B was acetonitrile. The column used was Waters Symmetry C18, 5 μm (3.9×150 mm). The autosampler temperature was maintained at 4-5° C. The conditions used for analysis of 7-(1-Aminoethyl)camptothecin: Isocratic elution using 15% of solvent A and 85% of solvent B; detection using λcx =370 and λcm =440. […] The HPLC data was collected and analyzed using Waters Millenium chromatography manager.

Q: Which results are given for `CC[C@@]1(O)C(=O)OCc2c1cc1n(c2=O)Cc2c-1nc1ccccc1c2CNN1CCN(C)CC1` [CT-17, 7-[N-(4-methyl-1-piperazino)aminomethyl]-(20S)-camptothecin]?
A: remaining at 1 h, 1 µM (DMPC SUV, PBS pH 7.4, 37° C, 1 hr, 1 μM drug, read-out: Percentage of Lactone, DMPC, 1 Hr): 34 ± 3%; remaining at 3 h, 1 µM (DMPC SUV, PBS pH 7.4, 37° C, 3 hr, 1 μM drug, read-out: Percentage of Lactone, DMPC, 3 Hr): 19 ± 3%; less lactone compared to the prior art monoamine (7AEC) (1 hr): 20%; less lactone compared to the prior art monoamine (7AEC) (3 hr): 17%
